Data taken from publication PMC2845915 (Bioconjugate chemistry, 2010).

Key:
human P2Y14 receptor = molecular target: T1, human P2Y14 receptor (Homo sapiens, UniProt Q15391); conditions: read-out: Potency at the P2Y14 receptor in the same assay; C6 cells expressing the human P2Y14 receptor; cited from earlier work
T1 sequence (Q15391 1-338): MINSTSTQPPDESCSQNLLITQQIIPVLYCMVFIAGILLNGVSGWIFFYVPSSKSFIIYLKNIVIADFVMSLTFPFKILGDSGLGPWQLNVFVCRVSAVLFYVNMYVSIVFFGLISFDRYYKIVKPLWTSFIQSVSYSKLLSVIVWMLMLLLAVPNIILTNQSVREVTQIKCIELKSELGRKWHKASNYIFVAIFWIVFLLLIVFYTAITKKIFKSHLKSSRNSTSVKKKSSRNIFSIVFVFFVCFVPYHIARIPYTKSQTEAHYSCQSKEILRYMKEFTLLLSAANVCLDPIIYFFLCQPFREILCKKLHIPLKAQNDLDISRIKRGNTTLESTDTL

human A3AR [1] = molecular target: T2, human A3AR (Homo sapiens, UniProt P0DMS8); assay: Radioligand binding at human A3AR; conditions: human ARs
T2 sequence (P0DMS8 1-318): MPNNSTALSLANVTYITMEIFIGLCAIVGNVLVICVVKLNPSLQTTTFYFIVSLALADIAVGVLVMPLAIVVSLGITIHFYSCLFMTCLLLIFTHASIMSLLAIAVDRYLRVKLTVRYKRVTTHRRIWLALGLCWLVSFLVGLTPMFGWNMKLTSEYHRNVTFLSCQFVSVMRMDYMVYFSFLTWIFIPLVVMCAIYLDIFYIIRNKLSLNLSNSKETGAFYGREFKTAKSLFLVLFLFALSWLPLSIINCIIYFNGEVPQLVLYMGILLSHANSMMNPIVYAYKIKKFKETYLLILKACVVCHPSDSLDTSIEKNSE

human A1AR = molecular target: T3, human A1AR (Homo sapiens, UniProt P30542); conditions: at 10 μM, ref Tosh et al. ([15], [21]) and Melman et al. ([14]); cited from earlier work
T3 sequence (P30542 1-326): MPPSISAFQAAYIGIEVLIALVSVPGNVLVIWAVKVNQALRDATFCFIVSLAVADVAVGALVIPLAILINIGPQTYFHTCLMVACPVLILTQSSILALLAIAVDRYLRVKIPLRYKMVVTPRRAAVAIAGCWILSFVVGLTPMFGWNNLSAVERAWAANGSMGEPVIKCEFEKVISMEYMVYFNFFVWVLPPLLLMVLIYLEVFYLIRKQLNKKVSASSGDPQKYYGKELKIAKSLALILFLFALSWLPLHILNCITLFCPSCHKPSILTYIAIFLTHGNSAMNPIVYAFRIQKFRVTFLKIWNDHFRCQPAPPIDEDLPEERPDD

human A2AAR = human A2AAR (Homo sapiens, UniProt P29274); conditions: read-out: Affinity (Ki) A2 (A2A), [3H]CGS21680, HEK293, ref Tosh et al. ([15], [21]) and Melman et al. ([14]); cited from earlier work
Sequence of human A2AAR (P29274 whole entry): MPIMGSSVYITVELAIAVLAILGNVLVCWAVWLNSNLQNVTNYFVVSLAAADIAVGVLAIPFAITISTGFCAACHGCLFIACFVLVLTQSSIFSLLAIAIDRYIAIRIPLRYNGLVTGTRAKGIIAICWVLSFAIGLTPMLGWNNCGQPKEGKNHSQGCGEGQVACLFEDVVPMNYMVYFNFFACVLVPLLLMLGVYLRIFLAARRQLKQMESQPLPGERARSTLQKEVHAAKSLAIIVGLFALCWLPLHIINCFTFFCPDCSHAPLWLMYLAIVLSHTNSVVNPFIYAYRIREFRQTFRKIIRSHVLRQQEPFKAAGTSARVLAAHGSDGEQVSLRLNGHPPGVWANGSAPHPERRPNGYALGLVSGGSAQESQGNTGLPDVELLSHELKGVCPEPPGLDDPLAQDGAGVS

human A3AR [2] = molecular target: T2, human A3AR; conditions: cited from earlier work

Selectivity for the A3AR in comparison to the A1AR (human A3AR [1]) | Compound | EC50 (human P2Y14 receptor) | % inhibition of radioligand binding A1 (human A1AR) | Ki (human A2AAR) | Selectivity for the A3AR (human A3AR [2])
– | O=C(O)[C@H]1O[C@H](OP(=O)(O)OP(=O)(O)OC[C@H]2O[C@@H](n3ccc(=O)[nH]c3=O)[C@H](O)[C@@H]2O)[C@H](O)[C@@H](O)[C@@H]1O [UDPGA, uridine-5′-diphosphoglucuronic acid] | 200 to 300 nM | – | – | –
> 500 fold | CNC(=O)[C@@]12C[C@@H]1[C@@H](n1cnc3c(NCc4cccc(Cl)c4)nc(C#CCCCCc4cn(CCNC(C)=O)nn4)nc31)[C@H](O)[C@@H]2O [Compound 4a] | – | (12±4%) at 10 μM | 2440 ± 320 nM | at least 100 fold
– | CNC(=O)[C@@]12C[C@@H]1[C@@H](n1cnc3c(NCc4cccc(Cl)c4)nc(Cl)nc31)[C@H](O)[C@@H]2O [Compound 2] | – | – | 2300 ± 100 nM | –
– | C#CCCCCC#Cc1nc(NCc2cccc(Cl)c2)c2ncn([C@H]3[C@H](O)[C@H](O)[C@]4(C(=O)NC)C[C@H]34)c2n1 [Compound 3a] | – | (31±2%) at 10 μM | – | –
